Data on six substances can be found in patent US20240358845A1 (priority 2021, published 2024).

Where two headings read alike, the source gives them in different places. Some results are limits rather than exact numbers.

For one experiment, the system named is dystrophin. The note with it: mouse, in vivo.
The test system of another experiment is Murine DMD exon 23. The note with it: mouse, in vivo.
The subject of a further experiment is creatine kinase. The settings on record: mouse, in vivo.
Experiment [1] relates to Human CD33 exon 2. The settings on record: U-87 MG glioblastoma cells; 48 hours; 10% FBS. The text has this:
Cells. Differentiated THP-1 cells (human monocyte cells) and glioblastoma cells (human neuronal cells) were used in this study.
Targeting CD33 expression represents a treatment strategy for AD and cancer. Skipping of exon 2 of the gene expressing CD33 produces D2-CD33, a CD33 isoform that lacks a binding domain of sialic acid. In the absence of such a ligand binding domain, CD33 cannot inhibit microglial activation and phagocytosis of amyloid beta by microglial cells. Such a result is protective against AD.

For experiment [2], the system named is exon 5 of non-human primate CD33. The experiment in a line: CD33 exon 5 skipping (RT-PCR) in monkey PBMC after intravenous infusion. The settings on record: NHP; IV infusion 2 mpk (d0) and 5 mpk (d3). The experiment is classed as in vivo. The procedure:
NHP Study design. To explore the tolerability of EEV-PMO on non-human primate (NHP), two CPP-PMO constructs as well as PMO itself are dosed in staggered fashion at 2 mpk and 5 mpk through intravenous infusion on d0 and d3, respectively. […] The CPP used was CPP12, which has a cyclic amino acid sequence of FfΦRrRr. PBMCs (peripheral blood mononuclear cells) were isolated at 1 day (d4) and 7 days […] post 5 mpk injection to detect splicing correction. Blood, serum and urine samples were collected at 1 day and or 7 days post each injection for hematology, clinical chemistry, coagulation, urinalysis, cytokine and histamine analysis.
Detection of exon exclusion by RT-PCR. Although human and non-human primates share high sequence homology of CD33 gene, the 5′-UTR and splicing pattern is different. The sequence coding for the IgV domain of CD33 is located in exon 2 for human and located in exon 5 for non-human primate CD33 gene. Therefore, the skipping of exon 2 in human CD33 (D2-CD33), resulting in ΔIgV-CD33 protein, corresponds to the skipping of exon 5 of non-human primate CD33. Monkey PBMC was collected at specified time points mentioned above. Total RNA was extracted, and RT-PCR was conducted using forward primer 5′-[…]-3′ and reverse primer 5′-[…]-3′ resulting in full length CD33 mRNA (FL-CD33) at 700 bp and Exon-5 skipped CD33 mRNA (D5-CD33) at 320 bp.

Experiment [3] deals with Human CD33 exon 2. It counts as cell-based.
Another experiment has as its system CD33. Nature of the experiment: CD33 production by flow cytometry in THP1 cells. It counts as cell-based, human. The source says:
Such a result is protective against AD.
Detection of exon 2 skipping by RT-PCR and flow cytometry.

Regarding “5′-GGCCAAACCTCGGCTTACCTGAAAT-3′ (all PMO monomers) [ENTR-0013]”, the “cells positive for dystrophin in cardiac tissue” value in the experiment on dystrophin was at most 5%. Also, the “mRNA correction and dystrophin protein expression in the heart” value in the experiment on Murine DMD exon 23 is “not in 20 mg/kg PMO treated MDX mice”.

As for “5′-GGCCAAACCTCGGCTTACCTGAAAT-3′-C3NH-PEG4-BCN+Ac-NLS-Lys(CPP12)-PEG12-K(N3) (all PMO monomers) [ENTR-0165]”, in the experiment with dystrophin, the “expression of dystrophin protein levels (Western Blot)” value is given as “significantly corrected the expression of dystrophin protein levels”. Further, in the experiment on Murine DMD exon 23 (iv, 20 mg/kg), the “exon 23 skipping in Quad” value was 38.5±2.5%, the “exon 23 skipping in diaphragm” value is 30.2±2.8% and the “exon 23 skipping in heart” value was determined as 30.5±17.0%.

As to “5′-GGCCAAACCTCGGCTTACCTGAAAT-3′-C3NH-PEG4-BCN+Lys(N3)-miniPEG-NLS-ss-bA-bA-CPP12 (all PMO monomers) [ENTR-0164]”, in the experiment on dystrophin, the “expression of dystrophin protein levels (Western Blot)” value is given as “significantly corrected the expression of dystrophin protein levels”. In the experiment with Murine DMD exon 23 (iv, 20 mg/kg), the “exon 23 skipping in Quad” value turned out to be 59.5±2.2%, the “exon 23 skipping in diaphragm” value was 61.0±13.7% and the “exon 23 skipping in heart” value is on record as 29.1±0.8%.

As to “5′-GGCCAAACCTCGGCTTACCTGAAAT-3′-click-K-PEG12-Lys(CPP12)-NLS-Ac (all PMO monomers) [ENTR-0201]”, in the experiment with creatine kinase, the “creatine kinase expression in comparison to control” value is listed as “decrease in creatine kinase expression in comparison to control” and the “serum creatine kinase level” value is on record as “normalized the serum creatine kinase level”. The “splicing correction and dystrophin protein in comparison to 20 mpk PMO” value with dystrophin is “higher amount of both splicing correction and dystrophin protein in all four muscle tissues”. Also, in the experiment with dystrophin (iv, 20 mg/kg), the “duration of restored dystrophin protein (Western Blot)” value is “sustained up to four weeks”; the “dystrophin immunohistochemistry, skeletal muscle fibers” value is listed as “all the skeletal muscle fibers immunostained positive for dystrophin protein”; the “intensity of dystrophin expression in heart muscle tissue (immunohistochemistry)” value is given as “reaching near normal levels”. Besides, in the experiment with Murine DMD exon 23, the “amount of splicing correction at 10 mg/kg versus 5 mg/kg” value is “higher amount of splicing correction than treatment with 5 mg/kg”; the “exon skipping activity across muscle groups” value is recorded as “high exon skipping activity across all the muscle groups”; the “mRNA correction and dystrophin protein expression in the heart” value is reported as “only observed in 10 mpk ENTR-201 treated MDX mice”; the “performance of CPP12 with Nuclear Localization Sequence versus CPP12 alone” value was “outperformed CPP12 alone significantly”. Moreover, in the experiment with Murine DMD exon 23, the “splicing correction of dystrophin in the heart and diaphragm” value was “also resulted in splicing correction of dystrophin in the heart and in the diaphragm”. Also, the “splicing correction of dystrophin mRNA and dystrophin protein levels” value in the experiment on Murine DMD exon 23 (10 mg/kg) is “significant splicing correction of dystrophin mRNA and dystrophin protein levels”. Further, the “splicing correction of dystrophin in the heart and diaphragm” value in the experiment on Murine DMD exon 23 (20 mg/kg) is “resulted in splicing correction of dystrophin in the heart and in the diaphragm”. In addition, in the experiment on Murine DMD exon 23 (iv, 20 mg/kg), the “duration of enhanced exon skipping efficiency” value is on record as “significant enhancements in exon skipping efficiency up to four weeks”, the “exon 23 skipping in Quad” value is recorded as 73.5±8.4%, the “exon 23 skipping in diaphragm” value is reported as 79.0±6.8% and the “exon 23 skipping in heart” value was determined as 60.5±17.2%. In the experiment on Murine DMD exon 23 (iv, 20 mg/kg), the “splicing correction of dystrophin” value is given as “resulted in splicing correction of dystrophin”.

With “5′-GTAACTGTATTTGGTACTTCC-3′ (Ac-NLS-Lys(CPP12)-PEG12-K(N3)- (all PMO monomers) [EEV-PMO-CD33-5]”, the “skipping of exon 2 CD33 (RT-PCR)” value in the experiment with Human CD33 exon 2 [1] is given as “dose-dependent skipping of exon 2 CD33”. Besides, in experiment [2], the “skipping of exon 5 of CD33 gene in monkey PBMC” value is “resulted in skipping of exon 5 of CD33 gene”. Besides, in the experiment on Human CD33 exon 2 [3], the “dose dependence of exon 2 skipping” value is given as “dose-dependent skipping of exon 2 CD33”, the “improvement of exon 2 skipping compared to unconjugated PMO-CD33” value is “over 1000 fold” and the “improvement of exon 2 skipping over PMO-CD33 with Endoporter transfection” value is listed as “over 2 fold”.

Turning to “5′-GTAACTGTATTTGGTACTTCC-3′ + CPP12-PEG12-K(CPP12)-PEG12-TFP (all PMO monomers) [EEV-PMO-CD33-4]”, the “production of CD33 (flow cytometry) in comparison to untreated (NT) cells” value in the experiment on CD33 is “reduced production of CD33”. In the experiment on Human CD33 exon 2 [3], the “dose dependence of exon 2 skipping” value was “dependent on the dose”; the “efficacy in inducing human CD33 exon 2 skipping (PMO sequence optimization)” value was “superior efficacy”; the “potency of bivalent versus monovalent EEV-PMO-CD33 in inducing CD33 exon 2 skipping” value is “more potent than EEV-PMO-CD33-2”; the “skipping of exon 2 of CD33 (RT-PCR)” value was “resulted in skipping of exon 2 and the production of D2-CD33”.
